Data as given in patent EP4111863A1, “PHOSPHORUS USE EFFICIENCY ENHANCERS AS PLANT GROWTH PROMOTORS” (EuroChem Antwerpen, priority 2021, dated 2023).

Tested on: SPX1
Test: Chemical activity assessment: SPX1 phosphate starvation biomarker, pSPX1::GUS reporter line, GUS stained area
Type: in vivo, Arabidopsis thaliana
Settings: Table 3; 50 µM compound, low phosphate modMS liquid medium, 7 days after germination; low phosphate control average of the same plate
Protocol: All Arabidopsis plant experiments were performed using the Arabidopsis thaliana Columbia-0 background. The Arabidopsis pSPX1::GUS line is described in the […] 2008, 54: 965-975. For rice, the cultivar Nipponbare was used. For maize, the cultivars DKC 2931 and B104 were used for regular pot experiments and sand-based pot experiments, respectively. For soybean, the cultivar Primus was used. […] The medium was solidified due to the addition of 0,6% Gelrite, unless stated otherwise. In case of vertical plates (root length and root hair measurements), the medium was supplied with 0.5% of sucrose and 1 µM (low phosphate, 1 µM KH2PO4, 9.9 mM KCI), 10 µM (low phosphate 10 µM KH2PO4, 9.9 mM KCI) or 1.25 mM KH2PO4 (high phosphate). Arabidopsis seeds were stratified for 2 days at 4 °C before germination. Seedlings were germinated in climate-controlled growth chambers at 22 °C under continuous light (100 µmol m^-2 s^-1). Husked rice seeds were germinated on wetted Whatman paper for 2 days at 37 °C and then transferred to Sterivent boxes or square Petri dishes with solid medium. Maize and soybean seeds were wetted 24 hours at room temperature prior to sowing in pots.
For the chemical activity assessment 3 to 8 seeds per well of Arabidopsis pSPX1::GUS line were sown in 96-well plates containing 150 µl of low phosphate modMS liquid medium containing 1% of sucrose. Compounds were added in 50 µM concentration, starting from a 5 mM stock of compounds solved in DMSO. Different chemical substances were separately added to different wells. Per plate, 16 control wells were used, 8 containing only the low phosphate medium and 1% DMSO, and 8 containing high phosphate medium and 1% DMSO. 7 days after germination, plates were scanned using a flatbed scanner (EPSON Expression 11000XL) and analyzed for leaf size. After scanning, the growth medium was replaced by GUS staining solution (see Plant Mol. Biol. Rep. 1994, 12: 37-42 for details) and incubated for 1.5 hours at 37 °C. The plates were scanned a second time and analyzed for GUS signal area. Measurements of both leaf area and GUS signal area were conducted by filtering out and measure the green and blue signal, respectively using ImageJ software. If the green leaf area was 50% or less than the control, samples were omitted. Additionally, all results were visually screened for leaf size and GUS signal.

Row | Structure (SMILES) | GUS (SPX1) stained area normalized to the number of seeds (pixels)
1 | CC1COCCN1Cn1nc(Br)nc1Br (stereo not shown) | 47
2 | CC1CN(C(=O)Cn2nc(-c3cccs3)oc2=O)CCO1 (stereo not shown) | 0
3 | c1ccc2sc(SN3CCOCC3)nc2c1 | 1
4 | CCC1CN(C(=O)c2[nH]nc(C)c2Br)CCO1 (stereo not shown) | 0
5 | c1ccc2nc(N3CCOCC3)cnc2c1 | 43
6 | O=C(C1=C(O)C(=O)N(CCN2CCOCC2)C1c1ccccc1)c1cccs1 (stereo not shown) | 5
7 | Cn1cc(C2CN(Cc3ccc(CSC(F)F)o3)CCO2)cn1 (stereo not shown) | 15
8 | O=C(Nc1sc2c(c1C(=O)N1CCOCC1)CCCC2)C1CCCc2ccccc21 (stereo not shown) | 8
9 | COc1ccc(-c2[nH]c3ccccc3c2CCC(=O)N2CCOCC2)cc1 | 3
10 | O=C(COc1cc(Cl)ccc1Cl)NCc1ccc(N2CCOCC2)nc1 | 3
11 | O=C(C1CSCN1C(=O)CC1=CCCCC1)N1CCOCC1 (stereo not shown) | 162
12 | Cc1ccc(S(=O)(=O)N2CCN(S(=O)(=O)N3CCOCC3)CC2)cc1 | 10
13 | CC1CN(C(=O)C2(c3ccc(F)cc3)CC2)CC1N1CCOCC1 (stereo not shown) | 53
14 | OC(COc1cccc2ccccc12)CN1CCOC2CCCCC21 (stereo not shown) | 34
15 | COc1ccc(-c2nnc(SCC(=O)N3CCOCC3)o2)cc1OC | 32
16 | O=C(C1CN(C(=O)CSc2nc3ccccc3o2)c2ccccc2O1)N1CCOCC1 (stereo not shown) | 34
17 | CC(c1nc(C(C)(C)C)no1)N1CCOC(c2ccccc2)C1 (stereo not shown) | 9
18 | CCc1ncncc1C(=O)NCCN1CC(C)OC(C)C1 (stereo not shown) | 362
19 | C[C@@H](CO)NS(=O)(=O)c1ccc(S(=O)(=O)N2CCOCC2)cc1 | 1
